Assay results: US6987008B1, “Variant nucleoside-5′-phosphate producing enzyme” (priority 1999, dated 2006)

Target: T1, Escherichia blattae acid phosphatase (EB-AP), wild type, SEQ ID NO: 2 / 124 (Shimwellia blattae, UniProt Q9S1A6)
T1 sequence (Q9S1A6 21-249): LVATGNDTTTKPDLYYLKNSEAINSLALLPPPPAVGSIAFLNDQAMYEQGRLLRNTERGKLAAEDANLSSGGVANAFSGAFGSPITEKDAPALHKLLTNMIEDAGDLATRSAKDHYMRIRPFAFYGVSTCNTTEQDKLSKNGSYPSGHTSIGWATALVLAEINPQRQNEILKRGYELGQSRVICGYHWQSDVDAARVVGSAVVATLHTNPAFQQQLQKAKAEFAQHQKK
Assay: Km of inosine for wild-type EB-AP
Format: biochemical

Km: > 100 mM
SMILES: OC[C@H]1O[C@@H](n2cnc3c(O)ncnc32)[C@H](O)[C@@H]1O [inosine]
